assay: Antagonist activity at human P2Y12 receptor assessed as inhibition of ADP-induced platelet-rich plasma aggregation by turbidimetric method

SMILES | IC50 [µM]
CCOC(=O)N1CCN(C(=O)[C@H](CCC(=O)O)NC(=O)c2cc(N(CC)CC)cc(-c3ccccc3)n2)CC1 [(S)-4-(4-(diethylamino)-6-phenylpicolinamido)-5-(4-(ethoxycarbonyl)piperazin-1-yl)-5-oxopentanoic acid] | > 100
CCCCCCOC(=O)N1CCN(C(=O)[C@H](CCC(=O)O)NC(=O)c2cc(N(C)CCS(C)(=O)=O)cc(-c3ccccc3)n2)CC1 [(S)-4-(4-(methyl(2-(methylsulfonyl)ethyl)amino)-6-phenylpicolinamido)-5-oxo-5-(4-(hexyloxycarbonyl)piperazin-1-yl)pentanoic acid] | 17.7
CCCCCOC(=O)N1CCN(C(=O)[C@H](CCC(=O)O)NC(=O)c2cc(N(C)CCS(C)(=O)=O)cc(-c3ccccc3)n2)CC1 [(S)-4-(4-(methyl(2-(methylsulfonyl)ethyl)amino)-6-phenylpicolinamido)-5-oxo-5-(4-(pentyloxycarbonyl)piperazin-1-yl)pentanoic acid] | 4.1
O=C(O)CC[C@H](NC(=O)c1cc(N2CCC(O)CC2)cc(-c2ccccc2)n1)C(=O)N1CCN(C(=O)OCCC2CCCC2)CC1 [(S)-5-(4-((2-cyclopentylethoxy)carbonyl)piperazin-1-yl)-4-(4-(4-hydroxypiperidin-1-yl)-6-phenylpicolinamido)-5-oxopentanoic acid] | 57.8
C=CCOC(=O)N1CCN(C(=O)[C@H](CCC(=O)O)NC(=O)c2cc(OCCCC)cc(-c3ccccc3)n2)CC1 [(S)-5-(4-(allyloxycarbonyl)piperazin-1-yl)-4-(4-butoxy-6-phenylpicolinamido)-5-oxopentanoic acid] | 61.7
C=CCOC(=O)N1CCN(C(=O)[C@H](CCC(=O)O)NC(=O)c2cc(OC3CCNCC3)cc(-c3ccccc3)n2)CC1 [(S)-5-(4-(allyloxycarbonyl)piperazin-1-yl)-5-oxo-4-(6-phenyl-4-(piperidin-4-yloxy)picolinamido)pentanoic acid] | 9.4
CCCCOC(=O)N1CCN(C(=O)[C@H](CCC(=O)O)NC(=O)c2cc(OCCO)cc(-c3ccccc3)n2)CC1 [(S)-5-(4-(butoxycarbonyl)piperazin-1-yl)-4-(4-(2-hydroxyethoxy)-6-phenylpicolinamido)-5-oxopentanoic acid] | 7.8
CCCCOC(=O)N1CCN(C(=O)[C@H](CCC(=O)O)NC(=O)c2cc(OC3CCNCC3)cc(-c3ccccc3)n2)CC1 [(S)-5-(4-(butoxycarbonyl)piperazin-1-yl)-5-oxo-4-(6-phenyl-4-(piperidin-4-yloxy)picolinamido)pentanoic acid] | 1.1
CCCCOC(=O)N1CCN(C(=O)[C@H](CCC(=O)O)NC(=O)c2cccc(-c3ccccc3)n2)CC1 [(S)-5-(4-(butoxycarbonyl)piperazin-1-yl)-5-oxo-4-(6-phenylpicolinamido)pentanoic acid] | 28
CCOC(=O)N1CCN(C(=O)[C@H](CCC(=O)O)NC(=O)c2cc(NCCO)cc(-c3ccccc3)n2)CC1 [(S)-5-(4-(ethoxycarbonyl)piperazin-1-yl)-4-(4-(2-hydroxyethylamino)-6-phenylpicolinamido)-5-oxopentanoic acid] | 8.1
CCOC(=O)N1CCN(C(=O)[C@H](CCC(=O)O)NC(=O)c2cc(NCC3CCNCC3)cc(-c3ccccc3)n2)CC1 [(S)-5-(4-(ethoxycarbonyl)piperazin-1-yl)-5-oxo-4-(6-phenyl-4-(piperidin-4-ylmethylamino)picolinamido)pentanoic acid] | 8.5
CCCCCCOC(=O)N1CCN(C(=O)[C@H](CCC(=O)O)NC(=O)c2cc(N3CCC(COC)CC3)cc(-c3ccccc3)n2)CC1 [(S)-5-(4-(hexyloxycarbonyl)piperazin-1-yl)-4-(4-(4-(methoxymethyl)piperidin-1-yl)-6-phenylpicolinamido)-5-oxopentanoic acid] | 7.6
COC(=O)N1CCN(C(=O)[C@H](CCC(=O)O)NC(=O)c2cccc(-c3ccccc3)n2)CC1 [(S)-5-(4-(methoxycarbonyl)piperazin-1-yl)-5-oxo-4-(6-phenylpicolinamido)pentanoic acid] | > 100
CCCCCOC(=O)N1CCN(C(=O)[C@H](CCC(=O)O)NC(=O)c2cccc(-c3ccccc3)n2)CC1 [(S)-5-oxo-5-(4-(pentyloxycarbonyl)piperazin-1-yl)-4-(6-phenylpicolinamido)pentanoic acid] | 15

More lines, in order of falling IC50, values ahead:

IC50 [µM] | SMILES
56 | CCCCCCCOC(=O)N1CCN(C(=O)[C@H](CCC(=O)O)NC(=O)c2cccc(-c3ccccc3)n2)CC1 [(S)-5-(4-(heptyloxycarbonyl)piperazin-1-yl)-5-oxo-4-(6-phenylpicolinamido)pentanoic acid]
39 | CCOC(=O)N1CCN(C(=O)[C@H](CCC(=O)O)NC(=O)c2cc(OC)cc(-c3ccccc3)n2)CC1 [(S)-5-(4-(ethoxycarbonyl)piperazin-1-yl)-4-(4-methoxy-6-phenylpicolinamido)-5-oxopentanoic acid]
28 | CCCNc1cc(C(=O)N[C@@H](CCC(=O)O)C(=O)N2CCN(C(=O)OCC)CC2)nc(-c2ccccc2)c1 [(S)-5-(4-(ethoxycarbonyl)piperazin-1-yl)-5-oxo-4-(6-phenyl-4-(propylamino)picolinamido)pentanoic acid]
21 | CCOC(=O)N1CCN(C(=O)[C@H](CCC(=O)O)NC(=O)c2cc(NC3CCOCC3)cc(-c3ccccc3)n2)CC1 [(S)-5-(4-(ethoxycarbonyl)piperazin-1-yl)-5-oxo-4-(6-phenyl-4-(tetrahydro-2H-pyran-4-ylamino)picolinamido)pentanoic acid]
20.1 | COCCOc1cc(C(=O)N[C@@H](CCC(=O)O)C(=O)N2CCN(C(=O)OC(C)C)CC2)nc(-c2ccccc2)c1 [(S)-5-(4-(isopropoxycarbonyl)piperazin-1-yl)-4-(4-(2-methoxyethoxy)-6-phenylpicolinamido)-5-oxopentanoic acid]
19 | CCCCCCOC(=O)N1CCN(C(=O)[C@H](CCC(=O)O)NC(=O)c2cccc(-c3ccccc3)n2)CC1 [(S)-5-(4-(hexyloxycarbonyl)piperazin-1-yl)-5-oxo-4-(6-phenylpicolinamido)pentanoic acid]
17.5 | CN(CCS(C)(=O)=O)c1cc(C(=O)N[C@@H](CCC(=O)O)C(=O)N2CCN(C(=O)OCCC3CCCC3)CC2)nc(-c2ccccc2)c1 [(S)-5-(4-((2-cyclopentylethoxy)carbonyl)piperazin-1-yl)-4-(4-(methyl(2-(methylsulfonyl)ethyl)amino)-6-phenylpicolinamido)-5-oxopentanoic acid]
14 | CCOC(=O)N1CCN(C(=O)[C@H](CCC(=O)O)NC(=O)c2cc(NCCOC)cc(-c3ccccc3)n2)CC1 [(S)-5-(4-(ethoxycarbonyl)piperazin-1-yl)-4-(4-(2-methoxyethylamino)-6-phenylpicolinamido)-5-oxopentanoic acid]
13.3 | C=CCOC(=O)N1CCN(C(=O)[C@H](CCC(=O)O)NC(=O)c2cc(OCCOC)cc(-c3ccccc3)n2)CC1 [(S)-5-(4-(allyloxycarbonyl)piperazin-1-yl)-4-(4-(2-methoxyethoxy)-6-phenylpicolinamido)-5-oxopentanoic acid]
11.1 | C=CCOC(=O)N1CCN(C(=O)[C@H](CCC(=O)O)NC(=O)c2cc(OCCO)cc(-c3ccccc3)n2)CC1 [(S)-5-(4-(allyloxycarbonyl)piperazin-1-yl)-4-(4-(2-hydroxyethoxy)-6-phenylpicolinamido)-5-oxopentanoic acid]
7.6 | CCOC(=O)N1CCN(C(=O)[C@H](CCC(=O)O)NC(=O)c2cc(N(C)CCS(C)(=O)=O)cc(-c3ccccc3)n2)CC1 [(S)-5-(4-(ethoxycarbonyl)piperazin-1-yl)-4-(4-(methyl(2-(methylsulfonyl)ethyl)amino)-6-phenylpicolinamido)-5-oxopentanoic acid]
6.4 | CCCCCCOC(=O)N1CCN(C(=O)[C@H](CCC(=O)O)NC(=O)c2cc(N3CCC(O)CC3)cc(-c3ccccc3)n2)CC1 [(S)-5-(4-(hexyloxycarbonyl)piperazin-1-yl)-4-(4-(4-hydroxypiperidin-1-yl)-6-phenylpicolinamido)-5-oxopentanoic acid]
5.8 | CCOC(=O)N1CCN(C(=O)[C@H](CCC(=O)O)NC(=O)c2cc(OCCOC)cc(-c3ccccc3)n2)CC1 [(S)-5-(4-(ethoxycarbonyl)piperazin-1-yl)-4-(4-(2-methoxyethoxy)-6-phenylpicolinamido)-5-oxopentanoic acid]
4 | CCOC(=O)N1CCN(C(=O)[C@H](CCC(=O)O)NC(=O)c2cc(OCC3CCNCC3)cc(-c3ccccc3)n2)CC1 [(S)-5-(4-(ethoxycarbonyl)piperazin-1-yl)-5-oxo-4-(6-phenyl-4-(piperidin-4-ylmethoxy)picolinamido)pentanoic acid]
1.9 | CCOC(=O)N1CCN(C(=O)[C@H](CCC(=O)O)NC(=O)c2cc(OC3CCNCC3)cc(-c3ccccc3)n2)CC1 [(S)-5-(4-(ethoxycarbonyl)piperazin-1-yl)-5-oxo-4-(6-phenyl-4-(piperidin-4-yloxy)picolinamido)pentanoic acid]
